A short description of assay [1]: Displacement of [3H] muscimol from rat GABA A receptor.
The target of assay [2] is T1, GABA-A receptor; alpha-1/beta-2/gamma-2 (Homo sapiens, UniProt P14867+P18507+P47870).
T1 sequence (P14867 whole entry): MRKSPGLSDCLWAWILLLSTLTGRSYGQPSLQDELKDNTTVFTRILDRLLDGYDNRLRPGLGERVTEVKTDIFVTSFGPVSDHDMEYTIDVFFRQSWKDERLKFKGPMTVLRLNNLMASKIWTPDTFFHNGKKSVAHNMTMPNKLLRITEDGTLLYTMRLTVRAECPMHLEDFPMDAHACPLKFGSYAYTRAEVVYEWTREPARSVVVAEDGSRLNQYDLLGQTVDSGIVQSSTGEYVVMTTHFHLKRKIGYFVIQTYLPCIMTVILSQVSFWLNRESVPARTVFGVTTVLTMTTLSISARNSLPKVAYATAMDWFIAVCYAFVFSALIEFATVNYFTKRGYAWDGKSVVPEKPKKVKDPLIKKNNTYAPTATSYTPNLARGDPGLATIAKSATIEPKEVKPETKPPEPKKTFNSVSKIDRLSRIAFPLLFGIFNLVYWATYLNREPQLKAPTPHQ
T1 sequence (P47870 whole entry): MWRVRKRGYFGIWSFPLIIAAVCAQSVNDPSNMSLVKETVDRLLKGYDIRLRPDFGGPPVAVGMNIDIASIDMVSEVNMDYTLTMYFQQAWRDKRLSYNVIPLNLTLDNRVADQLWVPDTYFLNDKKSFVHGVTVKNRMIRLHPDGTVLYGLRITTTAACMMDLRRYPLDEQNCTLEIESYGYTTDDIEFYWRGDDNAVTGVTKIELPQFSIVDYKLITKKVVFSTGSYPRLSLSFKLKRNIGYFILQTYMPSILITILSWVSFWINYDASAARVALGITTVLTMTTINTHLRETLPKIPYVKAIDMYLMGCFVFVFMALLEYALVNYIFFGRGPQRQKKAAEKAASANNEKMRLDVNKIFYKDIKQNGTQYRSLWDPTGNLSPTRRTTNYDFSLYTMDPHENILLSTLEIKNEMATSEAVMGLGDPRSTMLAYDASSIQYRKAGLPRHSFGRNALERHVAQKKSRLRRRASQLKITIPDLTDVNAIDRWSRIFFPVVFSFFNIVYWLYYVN
T1 sequence (P18507 whole entry): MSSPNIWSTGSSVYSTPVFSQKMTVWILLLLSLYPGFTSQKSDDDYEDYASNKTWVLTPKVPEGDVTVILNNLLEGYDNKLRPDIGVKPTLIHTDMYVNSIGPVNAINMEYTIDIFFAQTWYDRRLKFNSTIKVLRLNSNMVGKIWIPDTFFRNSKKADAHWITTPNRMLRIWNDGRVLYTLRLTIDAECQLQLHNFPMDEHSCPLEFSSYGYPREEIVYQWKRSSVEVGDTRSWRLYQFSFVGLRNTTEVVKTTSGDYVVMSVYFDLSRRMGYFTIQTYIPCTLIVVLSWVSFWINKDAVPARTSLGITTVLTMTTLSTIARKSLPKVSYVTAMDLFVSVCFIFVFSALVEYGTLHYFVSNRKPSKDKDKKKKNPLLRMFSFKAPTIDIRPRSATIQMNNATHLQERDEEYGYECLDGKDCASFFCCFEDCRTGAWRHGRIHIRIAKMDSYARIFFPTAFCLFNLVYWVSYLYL
Put plainly: Antagonist activity at human alpha1beta2gamma2S GABA-A receptor expressed in tsA201 cells assessed as inhibition of GABA-induced effect after 30 mins by FLIPR membrane potential blue assay. The assay is classed as cell-based.

Where only a bound is given, the exact number is not on record here.

By Ki is commonly meant the dissociation constant of the complex between target and ligand, obtained from inhibition or displacement. A word on the pKi: it is the Ki on a negative log10 scale, so that one unit is a factor of ten. Read a low pKi as a high Ki. In assay [1], `On1cc(C2CCNCC2)c(-c2cn(Cc3ccccc3)cn2)n1` came in with a Ki of 0.75 µM and a pKi of 6.13.
One may read the IC50 as the concentration at which inhibition is half-maximal. As for `On1cc(C2CCNCC2)c(-c2c[nH]cn2)n1`, the IC50 in assay [2] amounted to 30 µM. In assay [1], this compound gave a Ki of 5.1 µM and a pKi of 5.31.
Consider `COc1ccc(-c2ccc(=N)n(CCCC(=O)O)n2)cc1` [GABAZINE], for which the IC50 in assay [2] was 0.24 µM. The same compound returned a Ki in assay [1] of […].
In assay [1], `On1ncc(C2CCNCC2)c1-c1c[nH]cn1` came in with a Ki of 7.5 µM and a pKi of 5.14.
On to `On1ncc(C2CCNCC2)c1-c1cn(Cc2ccccc2)c(-c2ccccc2)n1`, for which the IC50 in assay [2] was determined as 0.78 µM. In addition, in assay [1], the Ki stood at 0.23 µM and the pKi was 6.64.
In the case of `On1cc(C2CCNCC2)c(-c2cn(Cc3ccccc3)c(-c3ccccc3)n2)n1`, in assay [2], the IC50 stood at 0.21 µM. Moreover, in assay [1], the Ki was determined as 0.28 µM and the pKi worked out at 6.57.
In the case of `On1cc(C2CCNCC2)c(-c2cccc(-c3ccccc3)c2)n1`, the Ki in assay [1] turned out to be 0.03 µM.
In assay [1], `On1ncc(C2CCNCC2)c1-c1cn(Cc2ccccc2)c(Cl)n1` registered a Ki of 0.83 µM and a pKi of 6.09.
As for `On1cc(C2CCNCC2)cn1`, the IC50 in assay [2] was over 500 µM. In assay [1], this compound gave a Ki of 10 µM.
For `On1ncc(C2CCNCC2)c1-c1c[nH]c(-c2ccccc2)n1`, in assay [2], the IC50 stood at 0.69 µM. Also, in assay [1], affinity was put at a Ki of 0.014 µM and the pKi came to 7.86.
Take `On1cc(C2CCNCC2)c(-c2cn(Cc3ccccc3)c(Cl)n2)n1`: in assay [1], the affinity, expressed as Ki, was 0.74 µM and the pKi is recorded as 6.14.
In the case of `On1cc(C2CCNCC2)c(-c2c[nH]c(-c3ccccc3)n2)n1`, the IC50 in assay [2] stood at 9.7 µM. Also, in assay [1], the Ki was found to be 2.5 µM and the pKi was found to be 5.61.

Source of the values: ChEMBL document CHEMBL2417406, “Exploring the orthosteric binding site of the γ-aminobutyric acid type A receptor using 4-(Piperidin-4-yl)-1-hydroxypyrazoles 3- or 5-imidazolyl substituted: design, synthesis, and pharmacological evaluation” (J Med Chem, 2013).
